Measured values as given in PubChem BioAssay (NCI).
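Protocol summary: plate cells (96-well), add compound at 5 concentrations, incubate 48 h, interpolate endpoints linearly. At the GI50, growth is halved. TGI denotes the concentration required for complete inhibition of growth.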

Experiments:
Test in all cases: growth of human tumour cells (NCI), 48 h
[1] = tested on: UACC-62 melanoma
[2] = tested on: UACC-257 melanoma
[3] = tested on: NCI-H23 lung
[4] = tested on: CCRF-CEM leukemia
[5] = tested on: MALME-3M melanoma
[6] = tested on: EKVX NSCLC
[7] = tested on: SNB-75 CNS
[8] = tested on: RXF 393 renal
[9] = tested on: MCF7 breast
[10] = tested on: HS 578T breast

SMILES	TGI [1]	TGI [2]	TGI [3]	TGI [4]	TGI [5]	TGI [6]	TGI [7]	TGI [8]	GI50 [1]	GI50 [7]	GI50 [8]	GI50 [2]	GI50 [9]	TGI [9]	GI50 [3]	GI50 [10]	TGI [10]	GI50 [6]	GI50 [4]	GI50 [5]
CCOC(=O)CC(=O)ON(C)C(C)=O	> 100 µM	> 100 µM	> 100 µM	> 100 µM	> 100 µM	> 100 µM														
c1ccc(COc2cccc3ccc[n+](Cc4ccccc4)c23)cc1	20.1 µM	6.34 µM	23.9 µM	> 100 µM	19.9 µM	> 100 µM	19.4 µM	61.9 µM												
COc1ncnc(NS(=O)(=O)c2ccc(N=C3C(=O)N(CN4CCN(c5c(F)cc6c(=O)c(C(=O)O)cn(C7CC7)c6c5OC)CC4C)c4ccc(Cl)cc43)cc2)c1OC (stereo not given)	> 50 µM	14.7 µM	47.3 µM			> 50 µM	> 50 µM	39.6 µM	16.1 µM	> 50 µM	10.8 µM	6.32 µM	12 µM	> 50 µM	13.5 µM	23.1 µM	> 50 µM	27.7 µM		
CCCCCCCCC/C=C1\CCC(CN2CCOCC2)C1=O (stereo not given)	10.7 µM	10.7 µM	9.18 µM	6.56 µM	19 µM	33.9 µM	16 µM	4 µM									5.47 µM			
CCN1CCN(c2nc(C)cc(N(CCNc3ccnc4cc(Cl)ccc34)Cc3ccc4c(c3)OCO4)n2)CC1	3.38 µM	3.6 µM	14.2 µM	5.88 µM	3.44 µM	13.9 µM	2.9 µM	3.08 µM	1.85 µM	1.35 µM	1.44 µM	1.83 µM	1.98 µM	5.89 µM	3.44 µM			3.14 µM	2.12 µM	1.84 µM
CCN1c2ccccc2C(C(SC)S(=O)(=O)c2ccc(C)cc2)c2c1[nH]c(=O)n(C)c2=O (stereo not given)	> 100 µM	> 100 µM	> 100 µM	> 100 µM	> 100 µM	> 100 µM	69.7 µM													
CC(C)OP(=O)(OC(C)C)C(=NCCN=C(NNc1ccc([N+](=O)[O-])cc1)P(=O)(OC(C)C)OC(C)C)NNc1ccc([N+](=O)[O-])cc1	36.7 µM	> 100 µM	5.23 µM	> 100 µM	> 100 µM	> 100 µM	> 100 µM													
CC(=O)[C@@]12O[C@@H]1CC1C3CCC4=CC(O)CCC4(C)C3CCC12C (stereo not given in full)	> 100 µM	> 100 µM	> 100 µM			> 100 µM	50.8 µM	65.6 µM	> 100 µM	18.7 µM	28.6 µM	> 100 µM	> 100 µM	> 100 µM	55.8 µM	27.9 µM	90.2 µM	> 100 µM		
COc1cc(C2c3cc4c(cc3OC(C)(O)C2C)OCO4)cc(OC)c1OC (stereo not given)		> 100 µM	> 100 µM	16.6 µM	> 100 µM	> 100 µM								> 100 µM			> 100 µM			
C[Si](C)(C)C1(Sc2ccccc2)SCCCS1	> 100 µM	> 100 µM	> 100 µM	77.8 µM	> 100 µM	> 100 µM	> 100 µM	> 100 µM												
OCC#Cc1ccccc1C#Cc1ccccc1	27.9 µM	32 µM	27.6 µM	39.8 µM		34 µM	30.4 µM		14.8 µM	14.6 µM		16.2 µM	19.5 µM	44.4 µM	13.7 µM	18.3 µM	43.7 µM	17.6 µM	7.14 µM	
COC(OC)C(C)CC(=O)N(C)C (stereo not given)	> 100 µM			> 100 µM		> 100 µM	> 100 µM													
CN(C)c1nc(=Nc2ccc(N=c3nc(N(C)C)ss3)cc2)ss1	> 21.3 µM	> 91.4 µM	20.1 µM	27.7 µM	51.4 µM	> 100 µM	> 100 µM	41.4 µM												
[Cl-].[La+3].[O-]/N=C(\c1ccccc1)c1ccccn1.[O-]/N=C(\c1ccccc1)c1ccccn1.[O-]/N=C(\c1ccccc1)c1ccccn1	> 100 µM	> 100 µM	> 100 µM	> 100 µM	> 100 µM	> 89.5 µM	82 µM	> 90.4 µM	33.3 µM	27.8 µM	29.8 µM	41.1 µM			57.1 µM			40.6 µM	25.7 µM	45.8 µM
COc1ccc(S(=O)(=O)NNS(C)(=O)=O)cc1	> 100 µM	> 100 µM	> 100 µM	> 100 µM	> 100 µM	> 100 µM	> 100 µM	> 100 µM												
CCCCCCN(CCCCCC)C(=O)Cc1c2n(c3ccccc13)Cc1ccccc1-2	> 100 µM	> 100 µM	> 100 µM	90.1 µM	> 100 µM	> 100 µM	> 100 µM	> 100 µM												
ClCc1cccc(Cn2cnc3ncnc(Cl)c32)c1	5.39 µM	5.52 µM	3.38 µM	22.2 µM		29.7 µM	3.53 µM	17.4 µM	2.16 µM	1.84 µM	2.02 µM	1.96 µM			1.23 µM	18.2 µM	42.3 µM	13.7 µM	6.91 µM	
O=C(/C=C\c1ccc(Cl)c(Cl)c1)c1ccc(Cl)cc1Cl	35.6 µM	36.5 µM	14.1 µM	64.4 µM	35.5 µM	56.2 µM	46.8 µM	39.7 µM											4.62 µM	
OC(c1nc2ccccc2[nH]1)C(O)C(O)C(O)c1nc2ccccc2[nH]1 (stereo not given)	> 100 µM	> 100 µM			> 100 µM	> 100 µM	> 100 µM	> 100 µM						> 100 µM			> 100 µM			
COc1cc(NCc2ccc3oc(=O)c(-c4ccccc4)nc3c2)cc(OC)c1OC	> 10 µM	> 10 µM	> 10 µM	> 10 µM		> 10 µM	> 10 µM	> 10 µM						> 10 µM			> 10 µM			
Cc1c2c(nn1-c1ccc(S(=O)(=O)/N=C3\SCCC(=O)N3c3ccccc3)cc1)-c1ccccc1CC2	> 100 µM	> 100 µM	> 100 µM	> 100 µM		> 100 µM		> 100 µM	> 100 µM		70.9 µM	> 100 µM			> 100 µM			94 µM	> 100 µM	

SMILES	TGI [1]	TGI [2]	TGI [3]	TGI [4]	TGI [5]	TGI [6]	TGI [7]	TGI [8]	GI50 [1]	GI50 [7]	GI50 [8]	GI50 [2]	GI50 [9]	TGI [9]	GI50 [3]	GI50 [10]	TGI [10]	GI50 [6]	GI50 [4]	GI50 [5]
C=C1C(=O)O[C@H]2[C@H]1CC/C(COC(=O)c1c[nH]c3ccccc13)=C\CC[C@@]1(C)O[C@@H]21	0.388 µM	1.49 µM	3.76 µM	0.972 µM	1.27 µM	2.01 µM	0.923 µM	0.391 µM	0.185 µM	0.207 µM	0.19 µM	0.368 µM			1.29 µM	0.613 µM	6.83 µM	0.315 µM	0.058 µM	0.324 µM
CCc1cc(Cc2cc(CC)c(NC(=O)C(=O)Cc3ccccn3)c(CC)c2Cl)c(Cl)c(CC)c1NC(=O)C(=O)Cc1ccccn1	> 100 µM	> 100 µM	> 100 µM	> 100 µM	> 100 µM	> 100 µM	> 100 µM													
CC(=O)/C(=C\c1cccc([N+](=O)[O-])c1)C(=O)Nc1ccccc1C	> 100 µM	> 100 µM	> 100 µM	> 100 µM	> 100 µM	> 100 µM		> 100 µM												
O=C1c2cc3c(cc2-c2c1c1ccc(F)cc1c(=O)n2CCCNCCO)OCO3	0.174 µM	0.853 µM	0.147 µM	1.27 µM	0.729 µM	1.21 µM		0.322 µM	0.0281 µM		0.1 µM	0.123 µM		0.166 µM	0.0304 µM	0.381 µM	2.68 µM	0.211 µM	0.0301 µM	0.102 µM
Cc1ccc(S(=O)(=O)Nc2ccccc2C(=O)c2ccc(C)c(C)c2)cc1	> 100 µM	> 100 µM	> 100 µM		> 100 µM	> 100 µM	> 100 µM	> 100 µM						> 100 µM			> 100 µM			
COc1cc(/C=C2\CN(S(=O)(=O)c3ccccc3)C/C(=C\c3cc(CN4CCCC4)c(O)c(OC)c3)C2=O)cc(CN2CCCC2)c1O	3.24 µM					3.53 µM	2.71 µM	2.8 µM	1.61 µM	1.27 µM	1.27 µM					2.52 µM	7.22 µM	1.14 µM		
CCOC(=O)C(=C=C=C(c1ccccc1)c1ccccc1)C(=O)OCC	37.7 µM	33.4 µM	> 100 µM	15.1 µM	40.2 µM	82.8 µM	21.9 µM	32.8 µM												
O=S1(=O)OCCOS(=O)(=O)C1Br	> 100 µM	> 100 µM	> 100 µM	> 100 µM	> 100 µM		> 100 µM													
C/C(=N\NC(=S)NC(CCC(=O)O)C(=O)O)c1ccccn1 (stereo not given)	> 100 µM	> 100 µM	> 100 µM	> 100 µM	> 100 µM	> 100 µM	> 100 µM	> 100 µM												
CC(C)=Cc1cc(C(=O)Nc2ccc(Cl)c(Cl)c2)nc(N)n1	> 100 µM	> 100 µM	> 100 µM		> 100 µM	> 100 µM	> 100 µM	> 100 µM												
CCOC(=O)NC(=O)c1cn(CCCO)c(=O)[nH]c1=O	> 100 µM	> 100 µM	> 100 µM	> 100 µM	> 100 µM	> 100 µM	> 100 µM													
COc1ccc([C@H]2[C@@H](F)C(=O)N2c2cc(OC)c(OC)c(OC)c2)cc1F		> 100 µM	> 100 µM	> 100 µM		> 100 µM	> 100 µM	66 µM		> 100 µM	0.0398 µM	> 100 µM	0.0364 µM	> 100 µM	0.273 µM	0.295 µM	> 100 µM	0.202 µM	0.0471 µM	
COc1ccc(-c2nnc(COc3ccc(C(=O)/C=C/c4ccco4)cc3)o2)cc1	11.2 µM	10.5 µM	20.5 µM		7.43 µM		14.5 µM	3.62 µM	3.14 µM	3.04 µM	1.87 µM	2.94 µM	1.39 µM	3.28 µM	7.02 µM	7.43 µM	43.1 µM			2.82 µM
Brc1ccccc1C1SCc2nc3ccccc3n21 (stereo not given)			33.3 µM	> 100 µM	48 µM	45.6 µM	47.1 µM	23.3 µM												
O=c1cc(-c2ccccc2)oc2cc(OCCCOc3ccc4c(=O)cc(-c5ccccc5)oc4c3)ccc12	> 100 µM	> 100 µM	> 100 µM	> 100 µM	> 100 µM	> 100 µM	> 100 µM	> 100 µM												
CC(=O)OC1COC(n2ccc3cc(Br)c([N+](=O)[O-])cc32)C(OC(C)=O)C1OC(C)=O (stereo not given)	46.5 µM	52 µM	61.3 µM	81.7 µM	72.5 µM	> 100 µM	75.2 µM	> 100 µM												
Cn1c2ccccc2c2cc(-c3ccccc3)c3c(c21)C(=O)c1ccccc1C3=O	30.1 µM	42.9 µM	22.8 µM	33 µM	49.6 µM		> 100 µM													
CN(C)c1ccc(/C=C(\NC(=O)c2ccccc2)c2nc3ncncc3[nH]2)cc1	> 100 µM		> 100 µM	> 100 µM	> 100 µM	> 100 µM		> 100 µM												
OCCCCCNCc1cc2cc3c(cc2c2cc(OCc4ccccc4)ccc12)OCO3	3.08 µM	3.15 µM		6.11 µM	3.1 µM	3.28 µM	3.09 µM	2.2 µM	1.71 µM	1.72 µM	1.04 µM	1.63 µM				1.79 µM	3.56 µM	1.75 µM	2.52 µM	1.66 µM
Clc1ccc(C(c2ccc(Cl)cc2)c2ccccn2)cc1	33.4 µM	37.9 µM	> 100 µM	48.1 µM	41.2 µM	52.5 µM	> 100 µM	28.2 µM												
